Measured values taken from patent US6448006B1, “Methods and compositions for reducing bacterial tolerance to antibacterials disinfectants and organic solvents” (priority 1997, dated 2002).
Values after ≈ are worked out from the molar mass of the structure shown. Where two headings read alike, the source gives them in different places.

What was measured:
Assay type in all cases: cell-based
[1] = test system: E. coli strains bearing mar, soxS or robA plasmids
Excerpt: Organic solvent tolerance mediated by the marA, soxS, robA and acrAB loci of E. coli is described in White et al. (J. Bacteriol. 179:6122-6126, 1997).

[2] = test system: E. coli strain WEC and its Pine-Sol-selected mutant; assay: Antibiotic susceptibility by discs (diameter of clearing)
Procedure: (§1) Mutants resistant to Pine-Sol/pine oil were obtained from stationary phase LB broth cultures of E. coli strain “WEC” (wild type strain 15-5068 from Carolina Biological Supply Co., Burlington, N.C.) and AG100 (George and Levy, J. Bacteriol. 155:531-540, 1983), at 30° C. on nutrient agar (NP 3.5GP) or LB agar with 2-3 days incubation in a variety of ways: using a 6 mm disc method; plating cells on plates or gradient plates (Curiale and Levy, J. Bacteriol. 151:209-215, 1982), containing PINE-SOL™ (product of Clorox Co., Oakland, Calif.) or pine oil itself.
(§2) Antibiotic susceptibility was measured at 30° C. using antibiotic susceptibility discs (Carolina Biological), gradient plates with the drug in the top agar (Curiale and Levy, 1982) or agar dilution plates (concentration steps of 1.5 fold; inocula of 10^5 cells/5 μl spot). While there was a variability of resistance phenotypes, all Pine-Sol/pine oil-selected mutants were also multidrug resistant (Table 1A, B).

[3] = test system: E. coli strains (AG100, Pine-Sol/pine oil mutants, Mar mutants); assay: Susceptibility by gradient plates (MIC); details: Escherichia coli
Procedure: as §1, §2

[4] = read-out: Susceptibility by gradient plates (MIC), strain AG102, Mar mutant of AG100, selected on Tc (2 steps)
[5] = read-out: Susceptibility by gradient plates (MIC), strain AP1, mutant of AG100 selected by pine oil on disc
[6] = read-out: Susceptibility by gradient plates (MIC), strain AP5, mutant of AG100 selected as for AP1
[7] = read-out: Susceptibility by gradient plates (MIC), strain APS3, mutant of AG100 selected on Pine-Sol gradient (0-1.5%)
[8] = strain AG100, wildtype, read-out: Susceptibility by gradient plates (MIC)

Q: For `CCCCC` [n-pentane], which “Growth in presence of organic solvent” value ([1]; AG102, Mar mutant of AG100, data not shown) is on record?
A: Its value is “grew”.

Q: Which results are given for `CC1(C)S[C@@H]2[C@H](NC(=O)[C@H](N)c3ccccc3)C(=O)N2[C@H]1C(=O)O` [Ap, ampicillin]?
A: Susceptibility by discs; diameter of clearing ([2]; strain WEC, wild type, 30° C.): 22 mm; Susceptibility by discs; diameter of clearing ([2]; {}): 12 mm; MIC [3, 4]: 85 µg/mL (≈ 243 µM); MIC [3, 5]: 3 µg/mL (≈ 8.59 µM); MIC [3, 6]: 7.2 µg/mL (≈ 20.6 µM); MIC [3, 7]: 7.7 µg/mL (≈ 22 µM); MIC [3, 8]: < 1.2 µg/mL; MIC ([3]; strain HH180, deletion of 39 kb including mar locus, host MM294, read-out: Susceptibility by gradient plates (MIC)): < 0.6 µg/mL; MIC ([3]; strain HH188, HH180 containing pHHM183 (mar+), read-out: Susceptibility by gradient plates (MIC)): < 1 µg/mL; MIC ([3]; strain HH191, HH180 containing pHHM191 (marR2), read-out: Susceptibility by gradient plates (MIC)): 5.4 µg/mL (≈ 15.5 µM); MIC ([3]; strain HH193, HH180 containing pHHM193 (marR5), read-out: Susceptibility by gradient plates (MIC)): 5.9 µg/mL (≈ 16.9 µM)

Q: Which “Growth in presence of organic solvent” value ([1]; AG100 (wild-type), no plasmid) does the source give for `CCCCCC` [n-hexane] here?
A: Its value is “+ +”.

Q: What about the “Growth in presence of organic solvent” value ([1]; AG100, plasmid pMAK-TU1) of the same compound?
A: The value was “+ +”.

Q: And the “Growth in presence of organic solvent” value ([1]; AG100, plasmid pMAK-TU1 & TU2)?
A: Its value is “+ +”.

Q: What about the “Growth in presence of organic solvent” value ([1]; AG100, plasmid pMAK-TU2) of the same compound?
A: The value was “+ +”.

Q: And the “Growth in presence of organic solvent” value ([1]; AG100, plasmid pSMarAB)?
A: The value was “+ +”.

Q: What about the “Growth in presence of organic solvent” value ([1]; AG100, plasmid pSRob) of the same compound?
A: The value was “+ +”.

Q: And the “Growth in presence of organic solvent” value ([1]; AG100, plasmid pSXS)?
A: Its value is “+ +”.

Q: What about the “Growth in presence of organic solvent” value ([1]; AG100-A (ΔacrAB), no plasmid) of the same compound?
A: The value was “−”.

Q: What about the “Growth in presence of organic solvent” value ([1]; AG100-B (acrR mutant), no plasmid) of the same compound?
A: The value was “+ +”.

Q: And the “Growth in presence of organic solvent” value ([1]; AG100K (marCORAB::kan), no plasmid)?
A: The value was “+ ((+) visible growth(≦100 colonies))”.

Q: And the “Growth in presence of organic solvent” value ([1]; AG100K, plasmid pMAK-TU1)?
A: Its value is “+ ((+) visible growth(≦100 colonies))”.

Q: And the “Growth in presence of organic solvent” value ([1]; AG100K, plasmid pMAK-TU2)?
A: The value was “+ +”.

Q: What about the “Growth in presence of organic solvent” value ([1]; AG100K, plasmid pMAK-TUI & TU2) of the same compound?
A: Its value is “+ +”.

Q: What about the “Growth in presence of organic solvent” value ([1]; AG100K, plasmid pSMarAB) of the same compound?
A: Its value is “+ +”.

Q: What about the “Growth in presence of organic solvent” value ([1]; AG100K, plasmid pSRob) of the same compound?
A: The value was “+ +”.

Q: And the “Growth in presence of organic solvent” value ([1]; AG100K, plasmid pSXS)?
A: The value was “+ +”.

Q: What about the “Growth in presence of organic solvent” value ([1]; AG102 (marR mutation), no plasmid) of the same compound?
A: Its value is “+ +”.

Q: What about the “Growth in presence of organic solvent” value ([1]; AG102-A (marRl, ΔacrAB), no plasmid) of the same compound?
A: The value was “−”.

Q: What about the “Growth in presence of organic solvent” value ([1]; AG102-A, plasmid pSMarAB) of the same compound?
A: Its value is “−”.

Q: And the “Growth in presence of organic solvent” value ([1]; AG102-A, plasmid pSRob)?
A: The value was “−”.

Q: What about the “Growth in presence of organic solvent” value ([1]; AG102-A, plasmid pSXS) of the same compound?
A: The value was “−”.

Q: What about the “Growth in presence of organic solvent” value ([1]; DJ901 (ΔsoxRS), no plasmid) of the same compound?
A: Its value is “+ +”.

Q: And the “Growth in presence of organic solvent” value ([1]; DJ901, plasmid pMAK-TU1)?
A: The value was “+ +”.

Q: What about the “Growth in presence of organic solvent” value ([1]; DJ901, plasmid pMAK-TU1 & TU2) of the same compound?
A: The value was “+ +”.

Q: What about the “Growth in presence of organic solvent” value ([1]; DJ901, plasmid pMAK-TU2) of the same compound?
A: Its value is “+ +”.

Q: And the “Growth in presence of organic solvent” value ([1]; DJ901, plasmid pSMarAB)?
A: Its value is “+ +”.

Q: What about the “Growth in presence of organic solvent” value ([1]; DJ901, plasmid pSRob) of the same compound?
A: The value was “+ +”.

Q: What about the “Growth in presence of organic solvent” value ([1]; DJ901, plasmid pSXS) of the same compound?
A: Its value is “+ +”.

Q: And the “Growth in presence of organic solvent” value ([1]; GC4468 (wild-type), no plasmid)?
A: Its value is “+ +”.

Q: And the “Growth in presence of organic solvent” value ([1]; GC4468, plasmid pMAK-TU1)?
A: Its value is “+ +”.

Q: And the “Growth in presence of organic solvent” value ([1]; GC4468, plasmid pMAK-TU1 & TU2)?
A: The value was “+ +”.

Q: And the “Growth in presence of organic solvent” value ([1]; GC4468, plasmid pMAK-TU2)?
A: Its value is “+ +”.

Q: And the “Growth in presence of organic solvent” value ([1]; GC4468, plasmid pSMarAB)?
A: Its value is “+ +”.

Q: What about the “Growth in presence of organic solvent” value ([1]; GC4468, plasmid pSRob) of the same compound?
A: The value was “+ +”.

Q: And the “Growth in presence of organic solvent” value ([1]; GC4468, plasmid pSXS)?
A: The value was “+ +”.

Q: And the “Growth in presence of organic solvent” value ([1]; JHC1069 (cfxB1), no plasmid)?
A: Its value is “+ +”.

Q: And the “Growth in presence of organic solvent” value ([1]; JTG1078 (soxR105), no plasmid)?
A: Its value is “+ +”.

Q: And the “Growth in presence of organic solvent” value ([1]; MCH164 (Δmar), no plasmid)?
A: Its value is “+ ((+) visible growth(≦100 colonies))”.

Q: What about the “Growth in presence of organic solvent” value ([1]; MCH164, plasmid pMAK-TU1) of the same compound?
A: Its value is “+ ((+) visible growth(≦100 colonies))”.

Q: And the “Growth in presence of organic solvent” value ([1]; MCH164, plasmid pMAK-TU1 & TU2)?
A: Its value is “+ +”.

Q: And the “Growth in presence of organic solvent” value ([1]; MCH164, plasmid pMAK-TU2)?
A: The value was “+ +”.

Q: What about the “Growth in presence of organic solvent” value ([1]; MCH164, plasmid pSMarAB) of the same compound?
A: Its value is “+ +”.

Q: What about the “Growth in presence of organic solvent” value ([1]; MCH164, plasmid pSRob) of the same compound?
A: The value was “+ +”.

Q: And the “Growth in presence of organic solvent” value ([1]; MCH164, plasmid pSXS)?
A: The value was “+ +”.

Q: What about the “Growth in presence of organic solvent” value ([1]; RA4468 (robA::kan), no plasmid) of the same compound?
A: The value was “+ ((+) visible growth(≦100 colonies))”.

Q: What about the “Growth in presence of organic solvent” value ([1]; RA4468, plasmid pMAK-TU1) of the same compound?
A: The value was “+ ((+) visible growth(≦100 colonies))”.

Q: What about the “Growth in presence of organic solvent” value ([1]; RA4468, plasmid pMAK-TU1 & TU2) of the same compound?
A: Its value is “+ +”.

Q: And the “Growth in presence of organic solvent” value ([1]; RA4468, plasmid pMAK-TU2)?
A: Its value is “+ +”.

Q: What about the “Growth in presence of organic solvent” value ([1]; RA4468, plasmid pSMarAB) of the same compound?
A: Its value is “+ +”.

Q: What about the “Growth in presence of organic solvent” value ([1]; RA4468, plasmid pSRob) of the same compound?
A: The value was “+ +”.

Q: And the “Growth in presence of organic solvent” value ([1]; RA4468, plasmid pSXS)?
A: Its value is “+ +”.

Q: Which “Susceptibility by discs; diameter of clearing” value ([2]; strain WEC, wild type, 30° C.) does the source give for `O=C(N[C@H](CO)[C@H](O)c1ccc([N+](=O)[O-])cc1)C(Cl)Cl` [Cm, chloramphenicol] here?
A: The value was 27 mm.

Q: What about the “Susceptibility by discs; diameter of clearing” value ([2]; {}) of the same compound?
A: Its value is 11 mm.

Q: What about the MIC [3, 4] of the same compound?
A: Its MIC is over 35 µg/mL.

Q: What about the MIC [3, 5] of the same compound?
A: The MIC was 7.8 µg/mL (≈ 24.1 µM).

Q: And the MIC [3, 6]?
A: The MIC was 21 µg/mL (≈ 65 µM).

Q: And the MIC [3, 7]?
A: The MIC was over 35 µg/mL.

Q: And the MIC [3, 8]?
A: Its MIC is 2.6 µg/mL (≈ 8.05 µM).
